Data published in PMC4739778 (Experimental hematology, 2011).
Where two headings read alike, the source gives them in different places.

How the values were obtained:
[1] = humans, oral; cited from earlier work
human OCTN2 = target: T1, human OCTN2 (Homo sapiens, UniProt O76082); experiment: Hydroxyurea uptake in HEK293 cells overexpressing hOCTN2; type: cell-based; settings: percentage of control cells (100%)
T1 sequence (O76082 1-557): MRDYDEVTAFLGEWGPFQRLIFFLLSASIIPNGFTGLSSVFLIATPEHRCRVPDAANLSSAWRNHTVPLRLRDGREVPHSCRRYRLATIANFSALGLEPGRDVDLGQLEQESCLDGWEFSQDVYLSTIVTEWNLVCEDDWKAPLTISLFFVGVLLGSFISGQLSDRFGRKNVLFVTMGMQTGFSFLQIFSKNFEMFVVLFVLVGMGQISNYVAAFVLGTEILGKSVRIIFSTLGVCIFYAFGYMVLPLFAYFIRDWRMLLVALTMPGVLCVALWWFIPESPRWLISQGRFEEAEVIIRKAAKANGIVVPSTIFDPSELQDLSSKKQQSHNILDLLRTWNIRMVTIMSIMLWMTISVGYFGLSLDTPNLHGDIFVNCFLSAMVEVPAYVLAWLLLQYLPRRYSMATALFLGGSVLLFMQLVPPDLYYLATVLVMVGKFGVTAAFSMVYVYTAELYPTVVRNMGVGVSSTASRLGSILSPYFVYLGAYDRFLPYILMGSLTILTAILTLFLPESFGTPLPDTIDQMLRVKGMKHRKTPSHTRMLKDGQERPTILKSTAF

[2] = PAMPA
human OCTN1 = target: T2, human OCTN1 (Homo sapiens, UniProt Q9H015); experiment: Hydroxyurea uptake in HEK293 cells overexpressing hOCTN1; type: cell-based; settings: percentage of control cells (100%)
T2 sequence (Q9H015 1-551): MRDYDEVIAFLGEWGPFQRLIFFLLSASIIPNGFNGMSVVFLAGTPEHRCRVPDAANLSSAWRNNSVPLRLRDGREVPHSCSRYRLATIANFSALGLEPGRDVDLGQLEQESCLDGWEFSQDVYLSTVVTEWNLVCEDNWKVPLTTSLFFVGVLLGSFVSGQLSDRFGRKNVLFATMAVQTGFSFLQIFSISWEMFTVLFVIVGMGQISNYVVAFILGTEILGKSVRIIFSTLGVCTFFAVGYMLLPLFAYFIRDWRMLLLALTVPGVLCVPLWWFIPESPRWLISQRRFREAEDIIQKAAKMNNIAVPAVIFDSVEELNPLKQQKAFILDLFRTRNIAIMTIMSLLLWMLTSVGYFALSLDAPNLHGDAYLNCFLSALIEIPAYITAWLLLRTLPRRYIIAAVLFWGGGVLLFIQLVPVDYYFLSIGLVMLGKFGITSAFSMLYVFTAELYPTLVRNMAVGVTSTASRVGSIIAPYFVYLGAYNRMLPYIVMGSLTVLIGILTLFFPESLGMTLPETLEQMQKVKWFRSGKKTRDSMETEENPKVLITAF

hOATP1B3 = target: T3, hOATP1B3 (Homo sapiens, UniProt Q9NPD5); experiment: Inhibition of OATP1B3-mediated hydroxyurea accumulation in oocytes; type: cell-based; settings: for Hydroxyurea accumulation in OATP1B3 oocytes, % of accumulation without inhibitor: 1mM inhibitor co-incubation, in 1% DMSO
T3 sequence (Q9NPD5 1-702): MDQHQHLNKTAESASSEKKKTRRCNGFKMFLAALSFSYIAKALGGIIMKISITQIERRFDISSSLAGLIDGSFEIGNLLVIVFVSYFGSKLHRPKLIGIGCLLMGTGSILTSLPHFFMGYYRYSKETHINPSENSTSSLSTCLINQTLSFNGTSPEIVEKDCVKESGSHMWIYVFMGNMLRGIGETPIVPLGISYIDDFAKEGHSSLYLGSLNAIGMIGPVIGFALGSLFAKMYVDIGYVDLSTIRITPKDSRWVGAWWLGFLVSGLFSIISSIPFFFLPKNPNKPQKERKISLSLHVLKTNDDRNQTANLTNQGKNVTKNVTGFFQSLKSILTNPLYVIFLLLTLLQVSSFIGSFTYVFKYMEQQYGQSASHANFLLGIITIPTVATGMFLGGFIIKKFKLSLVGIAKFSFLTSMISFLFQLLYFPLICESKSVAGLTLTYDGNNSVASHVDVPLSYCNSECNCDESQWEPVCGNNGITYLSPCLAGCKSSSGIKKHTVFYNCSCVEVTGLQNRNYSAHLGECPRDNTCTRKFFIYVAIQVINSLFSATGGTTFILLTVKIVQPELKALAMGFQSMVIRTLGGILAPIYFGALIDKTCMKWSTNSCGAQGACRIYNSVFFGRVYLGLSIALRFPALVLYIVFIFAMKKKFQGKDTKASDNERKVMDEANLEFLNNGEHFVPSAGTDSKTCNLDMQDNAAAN

[3] = Parallel artificial membrane permeability assay; settings: 4% lipid bilayer; 16-hours incubation at room temperature
UTB = target: T4, UTB (Homo sapiens, UniProt Q13336); experiment: Transcellular transport assay in LLC-PK1 cells overexpressing UTB; type: cell-based; settings: 1mM dimethylurea
T4 sequence (Q13336 1-389): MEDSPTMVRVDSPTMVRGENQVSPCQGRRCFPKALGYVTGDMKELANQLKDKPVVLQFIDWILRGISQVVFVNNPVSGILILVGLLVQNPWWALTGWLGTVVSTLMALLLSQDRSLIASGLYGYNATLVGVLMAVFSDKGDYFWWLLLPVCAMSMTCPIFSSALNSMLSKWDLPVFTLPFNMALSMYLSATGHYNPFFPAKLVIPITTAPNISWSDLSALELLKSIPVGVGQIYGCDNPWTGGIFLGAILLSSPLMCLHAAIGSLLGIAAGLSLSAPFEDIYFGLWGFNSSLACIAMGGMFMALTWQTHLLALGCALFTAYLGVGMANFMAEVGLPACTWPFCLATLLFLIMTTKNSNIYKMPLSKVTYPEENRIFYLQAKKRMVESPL

Compound: NC(=O)NO [hydroxyurea]
- Tmax [1]: 1.22 h
- bioavailability [1]: nearly complete
- hydroxyurea uptake compared to controls (human OCTN2): 113%
- 10 + logPe [2]: 2.597
- estimated permeability rate (log Pe + 10) [2]: 2.385
- hydroxyurea uptake compared to controls (human OCTN1): 130%

Compound: CN(Cc1cnc2nc(N)nc(N)c2n1)c1ccc(C(=O)N[C@@H](CCC(=O)O)C(=O)O)cc1 [methotrexate]
- lowering of hydroxyurea accumulation in OATP1B3 oocytes (hOATP1B3; 1mM co-incubation in the absence of DMSO): 50%
- 10 + logPe ([2]; 16 h): 2.022

Compound: Cc1ncc2n1-c1ccc(Cl)cc1C(c1ccccc1F)=NC2 [midazolam]
- 10 + logPe [3]: 4.707

Compound: C[C@@H]1O[C@@H](O[C@H]2[C@H](Oc3cc(O)c4c(c3)O[C@H](c3ccc(O)cc3)CC4=O)O[C@H](CO)[C@@H](O)[C@@H]2O)[C@H](O)[C@H](O)[C@H]1O [naringin]
- Hydroxyurea accumulation in OATP1B3 oocytes, % of accumulation without inhibitor (hOATP1B3): 30%

Compound: CO[C@H]1/C=C/O[C@@]2(C)Oc3c(C)c(O)c4c(O)c(c(/C=N/N5CCN(C)CC5)c(O)c4c3C2=O)NC(=O)/C(C)=C\C=C\[C@H](C)[C@H](O)[C@@H](C)[C@@H](O)[C@@H](C)[C@H](OC(C)=O)[C@@H]1C [rifampin]
- Hydroxyurea accumulation in OATP1B3 oocytes, % of accumulation without inhibitor (hOATP1B3): 30%

Compound: NC(N)=O [urea]
- 10 + logPe [2]: 2.712
- estimated permeability rate (log Pe + 10) [2]: 2.335

Compound: dimethylurea
- effect on hydroxyurea transport (UTB): marginally inhibited
